Results reported in ChEMBL document CHEMBL1201862, “PubChem BioAssay data set” (2004).
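48-hour exposure; five concentrations; linearly interpolated endpoints. Abbreviation: GI50, concentration required for 50% inhibition of growth.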 Activity calls are given as the source filed them. No stated cut-off is given here; in the data, active = GI50 up to about 1.1 µM and inactive = higher.

Experiments:
Test in all cases: NCI-60 cell line screen, 48 h
NCI-H23 = system: NCI-H23
SK-MEL-5 = system: SK-MEL-5
Malme-3M = system: Malme-3M
OVCAR-3 = system: OVCAR-3
PC-3 = system: PC-3
RPMI-8226 = system: RPMI-8226
NCI-H226 = system: NCI-H226
DU-145 = system: DU-145
NCI-H522 = system: NCI-H522
K562 = system: K562
ACHN = system: ACHN
OVCAR-4 = system: OVCAR-4
HCT-116 = system: HCT-116
LOX IMVI = system: LOX IMVI
SK-MEL-2 = system: SK-MEL-2
MDA-MB-231 = system: MDA-MB-231
COLO 205 = system: COLO 205
UACC-62 = system: UACC-62
HCT-15 = system: HCT-15
OVCAR-8 = system: OVCAR-8
HOP-62 = system: HOP-62
CCRF-CEM = system: CCRF-CEM
786-0 = system: 786-0
NCI/ADR-RES = system: NCI/ADR-RES
A498 = system: A498
HL-60 = system: HL-60
RXF 393 = system: RXF 393
OVCAR-5 = system: OVCAR-5
SF-268 = system: SF-268
CAKI-1 = system: CAKI-1
MCF7 = system: MCF7
A549 = system: A549
Hs-578T = system: Hs-578T
M14 = system: M14
SF-295 = system: SF-295
SN12C = system: SN12C
U-251 = system: U-251
MDA-N = system: MDA-N
IGROV-1 = system: IGROV-1
SF-539 = system: SF-539
SNB-19 = system: SNB-19
UO-31 = system: UO-31
EKVX = system: EKVX
UACC-257 = system: UACC-257
KM12 = system: KM12
MDA-MB-435 = system: MDA-MB-435
T47D = system: T47D
HCC 2998 = system: HCC 2998
HOP-92 = system: HOP-92
HT-29 = system: HT-29
SK-MEL-28 = system: SK-MEL-28
BT-549 = system: BT-549
SW-620 = system: SW-620
TK-10 = system: TK-10
SNB-75 = system: SNB-75
SR = system: SR
MOLT-4 = system: MOLT-4
NCI-H460 = system: NCI-H460
SK-OV-3 = system: SK-OV-3

With CC(C)(C)OC(=O)NCC(c1c[nH]c2ccc(Br)cc12)c1c[nH]c2ccc(Br)cc12 the GI50 (NCI-H23) was 4.33 µM (inactive), the GI50 (SK-MEL-5) was 6.38 µM (inactive) and the GI50 (Malme-3M) was 18.3 µM (inactive). For the same compound, the GI50 (OVCAR-3) was 4.54 µM (inactive), the GI50 (PC-3) was 3.55 µM (inactive) and the GI50 (RPMI-8226) was > 100 µM (inactive). For the same compound, the GI50 (NCI-H226) was 16.6 µM (inactive), the GI50 (DU-145) was 11.7 µM (inactive) and the GI50 (NCI-H522) was 10.7 µM (inactive). The GI50 (K562) was 15.9 µM (inactive), the GI50 (ACHN) was 5.96 µM (inactive) and the GI50 (OVCAR-4) was 7.36 µM (inactive). For the same compound, the GI50 (HCT-116) was 4.14 µM (inactive), the GI50 (LOX IMVI) was 7.03 µM (inactive) and the GI50 (SK-MEL-2) was 8.04 µM (inactive). For the same compound, the GI50 (MDA-MB-231) was 10.5 µM (inactive), the GI50 (COLO 205) was 5 µM (inactive) and the GI50 (UACC-62) was 11.1 µM (inactive). For the same compound, the GI50 (HCT-15) was 7.73 µM, the GI50 (OVCAR-8) was 13.4 µM (inactive) and the GI50 (HOP-62) was 12.7 µM (inactive). The GI50 (CCRF-CEM) was 5.12 µM (inactive), the GI50 (786-0) was 3.85 µM (inactive) and the GI50 (NCI/ADR-RES) was 6.82 µM (inactive). For the same compound, the GI50 (A498) was 14.5 µM (inactive), the GI50 (HL-60) was 11.7 µM (inactive) and the GI50 (RXF 393) was 11.6 µM (inactive). For the same compound, the GI50 (OVCAR-5) was 7.48 µM (inactive), the GI50 (SF-268) was 8.43 µM (inactive) and the GI50 (CAKI-1) was 11 µM (inactive). The GI50 (MCF7) was 5.41 µM (inactive), the GI50 (A549) was 5.18 µM (inactive) and the GI50 (Hs-578T) was 19.3 µM (inactive). For the same compound, the GI50 (M14) was 3.56 µM (inactive), the GI50 (SF-295) was 9.89 µM (inactive) and the GI50 (SN12C) was 5.13 µM (inactive). For the same compound, the GI50 (U-251) was 6.43 µM (inactive), the GI50 (MDA-N) was 8.63 µM (inactive) and the GI50 (IGROV-1) was 4.07 µM (inactive). For the same compound, the GI50 (SF-539) was 14.4 µM (inactive), the GI50 (SNB-19) was 11.2 µM (inactive) and the GI50 (UO-31) was 7.11 µM (inactive). For the same compound, the GI50 (EKVX) was 4.52 µM (inactive), the GI50 (UACC-257) was 13 µM (inactive) and the GI50 (KM12) was 4.16 µM (inactive). For the same compound, the GI50 (MDA-MB-435) was 11.7 µM (inactive), the GI50 (T47D) was 10 µM (inactive) and the GI50 (HCC 2998) was 5.18 µM (inactive). The GI50 (HOP-92) was 3.76 µM (inactive), the GI50 (HT-29) was 3.34 µM (inactive) and the GI50 (SK-MEL-28) was 16.3 µM (inactive). For the same compound, the GI50 (BT-549) was 12.4 µM (inactive), the GI50 (SW-620) was 6.64 µM (inactive) and the GI50 (TK-10) was 12.6 µM (inactive).
With COc1cc(C[C@H]2C(=O)OC[C@@H]2Cc2ccc(OC)c(OC)c2)cc(OC)c1 the GI50 (NCI-H23) was 39.4 µM (inactive), the GI50 (SK-MEL-5) was 16.8 µM (inactive) and the GI50 (Malme-3M) was 55.6 µM (inactive). For the same compound, the GI50 (OVCAR-3) was 59.3 µM (inactive), the GI50 (PC-3) was 33 µM (inactive) and the GI50 (RPMI-8226) was 52.7 µM (inactive). For the same compound, the GI50 (SNB-75) was 40.6 µM (inactive), the GI50 (NCI-H226) was > 100 µM (inactive) and the GI50 (SR) was 30.5 µM (inactive). The GI50 (DU-145) was > 100 µM (inactive), the GI50 (NCI-H522) was 64.3 µM (inactive) and the GI50 (K562) was 31.5 µM (inactive). The GI50 (ACHN) was 31.2 µM (inactive), the GI50 (MOLT-4) was 27.2 µM (inactive) and the GI50 (OVCAR-4) was 29.7 µM (inactive). For the same compound, the GI50 (HCT-116) was 34.7 µM (inactive), the GI50 (LOX IMVI) was 18.5 µM (inactive) and the GI50 (SK-MEL-2) was 78.5 µM (inactive). For the same compound, the GI50 (MDA-MB-231) was 93.3 µM (inactive), the GI50 (COLO 205) was 89.3 µM (inactive) and the GI50 (UACC-62) was 62.8 µM (inactive). The GI50 (HCT-15) was 53.3 µM, the GI50 (OVCAR-8) was 98.4 µM (inactive) and the GI50 (HOP-62) was > 100 µM (inactive). For the same compound, the GI50 (CCRF-CEM) was 25.8 µM (inactive), the GI50 (786-0) was > 100 µM (inactive) and the GI50 (NCI/ADR-RES) was 32.1 µM (inactive). For the same compound, the GI50 (HL-60) was 37.2 µM (inactive), the GI50 (RXF 393) was > 100 µM (inactive) and the GI50 (OVCAR-5) was > 100 µM (inactive). The GI50 (SF-268) was > 100 µM (inactive), the GI50 (CAKI-1) was > 100 µM (inactive) and the GI50 (NCI-H460) was > 100 µM (inactive). For the same compound, the GI50 (SK-OV-3) was > 100 µM (inactive), the GI50 (MCF7) was 34.2 µM (inactive) and the GI50 (A549) was 74.8 µM (inactive). For the same compound, the GI50 (Hs-578T) was > 100 µM (inactive), the GI50 (M14) was 93.8 µM (inactive) and the GI50 (SF-295) was 88.1 µM (inactive). For the same compound, the GI50 (SN12C) was > 100 µM (inactive), the GI50 (U-251) was 70.8 µM (inactive) and the GI50 (MDA-N) was 58.5 µM (inactive). The GI50 (IGROV-1) was > 100 µM (inactive), the GI50 (SF-539) was > 100 µM (inactive) and the GI50 (SNB-19) was > 100 µM (inactive). The GI50 (UO-31) was 39.6 µM (inactive), the GI50 (EKVX) was 55.6 µM (inactive) and the GI50 (UACC-257) was 51.5 µM (inactive). For the same compound, the GI50 (KM12) was 51.6 µM (inactive), the GI50 (MDA-MB-435) was 55.7 µM (inactive) and the GI50 (T47D) was 35.2 µM (inactive). The GI50 (HCC 2998) was > 100 µM (inactive), the GI50 (HOP-92) was 92.9 µM (inactive) and the GI50 (HT-29) was 33.2 µM (inactive). For the same compound, the GI50 (SK-MEL-28) was 62.2 µM (inactive), the GI50 (BT-549) was 16.8 µM (inactive) and the GI50 (SW-620) was 70.6 µM (inactive). The GI50 (TK-10) was > 100 µM (inactive).
